Entries after “also recorded” stand apart in the source; their conditions may differ. Where two headings read alike, the source gives them in different places.
Legend:
[1] = system: influenza A/PR/8/34 (H1N1) followed by S. pneumoniae D39; experiment: Treatment study: sequential dual infection, oseltamivir begun 48 hours after influenza infection, pneumococcal challenge on day 7; type: in vivo, Balb/cByJ mice; details: for Survival (Mantel-Cox Chi-Squared test on Kaplan-Meier survival data): oseltamivir 10 mg/kg/day BID begun 48 h after influenza, until D39 challenge on day 7, p<0.01 vs water control; for Mean viral lung titer / Weight Loss (% of Baseline) / Mean bacterial lung titer: treatment study; for Mean bacterial lung titer: day 8, 24 hours after pneumococcal challenge
[2] = system: influenza A/PR/8/34 (H1N1) followed by S. pneumoniae D39; experiment: Chemoprophylaxis study: mice infected with influenza virus on day 0, oseltamivir begun 4 hours before infection, pneumococcal challenge on day 7; type: in vivo, Balb/cByJ mice; details: for Weight Loss (% of Baseline) / Mean viral lung titer: prophylaxis study
[3] = cited from earlier work

**Q.** Which Lung histopathology ([1]; lung tissue on day 8, untreated controls: diffuse, severe infection disseminated throughout both lungs) does the source give for `CCOC(=O)C1=C[C@@H](OC(CC)CC)[C@H](NC(C)=O)[C@@H](N)C1` [oseltamivir, oseltamivir phosphate] here?
**A.** lobar bronchopneumonia infection that is confined to defined regions of the lungs

**Q.** And the “Survival (Mantel-Cox Chi-Squared test on Kaplan-Meier survival data)” value [1]?
**A.** significantly prolonged

**Q.** What about the “Survival (Mantel-Cox Chi-Squared test on Kaplan-Meier survival data)” value ([1]; listed as Oseltamivir) of the same compound?
**A.** prolongs survival

**Q.** And the Median survival ([1]; oseltamivir group of the treatment study, control 1 day)?
**A.** 5 days

**Q.** And the “Weight lost by surviving mice, % of their day 7 weight” value ([1]; treatment group, in 48 hours after pneumococcal challenge, control 5%)?
**A.** 4%

**Q.** What about the “Survival (number survived/total)” value ([1]; treatment group, control 0/9) of the same compound?
**A.** 3/10

**Q.** And the “Mean viral lung titer” value ([1]; day 3)?
**A.** 6.8 log10

**Q.** And the “Weight Loss (% of Baseline)” value ([1]; day 3)?
**A.** 7.6 % of Baseline

**Q.** What about the “Mean viral lung titer” value ([1]; day 3, listed as Oseltamivir) of the same compound?
**A.** 6.84 log10

**Q.** And the “Mean viral lung titer” value ([1]; day 7)?
**A.** 5.4 log10

**Q.** And the “Weight Loss (% of Baseline)” value ([1]; day 7)?
**A.** 23 % of Baseline

**Q.** And the “Mean viral lung titer” value ([1]; day 7, listed as Oseltamivir)?
**A.** 5.42 log10

**Q.** And the “Mean bacterial lung titer” value [1]?
**A.** 7.1 log10 CFU/ml

**Q.** And the “Mean bacterial lung titer” value ([1]; listed as Oseltamivir)?
**A.** 7.08 log10 CFU/ml

**Q.** What about the “Survival (Mantel-Cox Chi-Squared test on Kaplan-Meier survival data)” value ([2]; oseltamivir 10 mg/kg/day BID for 5 days from 4 h before influenza, 100 TCID50 PR8 day 0, 100 CFU D39 day 7, p<0.005 vs water control) of the same compound?
**A.** significantly prolonged; also recorded: prolongs survival

**Q.** What about the Median survival ([2]; prophylaxis group, after pneumococcal challenge, control <1 day) of the same compound?
**A.** 7 days

**Q.** And the “Survival (number survived/total)” value ([2]; prophylaxis group, followed 21 days, control 0/10)?
**A.** 5/10

**Q.** What about the “Weight lost by surviving mice, % of their day 7 weight” value ([2]; prophylaxis group, in 48 hours after pneumococcal challenge, control 9.5%) of the same compound?
**A.** 7.5%

**Q.** What about the “Weight Loss (% of Baseline)” value ([2]; day 3) of the same compound?
**A.** 4.0 % of Baseline

**Q.** And the “Mean viral lung titer” value ([2]; day 3, log10/ml TCID50 in MDCK cells)?
**A.** 4.3 log10

**Q.** What about the “Mean viral lung titer” value ([2]; day 3, log10/ml TCID50 in MDCK cells, listed as Oseltamivir) of the same compound?
**A.** 4.32 log10

**Q.** What about the “Weight Loss (% of Baseline)” value ([2]; day 7) of the same compound?
**A.** 9 % of Baseline

**Q.** And the “Mean viral lung titer” value ([2]; day 7, before pneumococcal challenge, log10/ml TCID50)?
**A.** 3.84 log10

**Q.** And the “Weight Loss (% of Baseline)” value ([2]; day 7, listed as Oseltamivir)?
**A.** 8.7 % of Baseline

**Q.** What about the Half-life ([3]; oral) of the same compound?
**A.** 6 to 10 h

**Q.** And the Systemic bioavailability ([3]; oral)?
**A.** 80%

**Q.** Which “Fraction of inhaled drug that reaches the lungs” value ([3]; dry powder for inhalation) does the source give for `CC(=O)N[C@H]1[C@H]([C@H](O)[C@H](O)CO)OC(C(=O)O)=C[C@@H]1N=C(N)N` [Zanamivir, zanamivir] here?
**A.** approx. 20%

**Q.** And the Gastrointestinal absorption ([3]; in vivo)?
**A.** poorly absorbed

**Q.** And the Half-life ([3]; in vivo)?
**A.** 2.5 to 5 h

Source: patent publication US20040248825A1, “Use of neuraminidase inhibitors to prevent flu associated bacterial infections” (St. Jude Children's Research Hospital, priority 2001, published 2004)
